Laboratory results reported in patent US12667581B2, “Therapeutics for treatment of COVID-19 symptoms” (The Texas A&M University System, priority 2020, dated 2026).

Experiments:
Format in all cases: in vivo, C57BL/6 mice
[1] = system: Mouse Model of CALD (ORN06 oropharyngeal aspiration); assay: Percentage of alveolar airspace area occupied by exudate, ORN06 mouse model of CALD; settings: lung cryosections; i.p. at 24 and 48 hours after ORN06 (DANA 10 mg/kg, AMPCA 0.1 mg/kg); day 3; FIG. 8
Protocol: (§1) To determine if DANA or AMPCA affect CALD symptoms in mice, 5 week old 20 g male and female C57BL/6 mice (#000664; Jackson Laboratories, Bar Harbor, ME) were given an oropharyngeal aspiration of 1 mg/kg (20 μg/mouse) ORN06/LyoVec (LyoVec protects the ssRNA from degradation and facilitates cellular uptake) (InvivoGen, San Diego, CA) in 50 μl phosphate-buffered saline (PBS) to induce symptoms of pulmonary inflammation, or an oropharyngeal aspiration of an equal volume of PBS as a control, following Current protocols in mouse biology 2, 167-175 (2012). […]
(§2) After collecting BALF, the lungs from the mice were harvested and inflated with Surgipath frozen section compound (#3801480, Leica, Buffalo Grove, IL) and preserved at −80° C. […] Image quantification was done using Image J (NIH, Bethesda, MD). […] Using ‘ Straight’ command, the length of the alveolar wall on the image was measured and was recorded with the ‘Measure’ command. 8 measurements of the alveolar wall thickness were recorded for each image. […]
Using the Threshold function and the Measure Tool in NIH ImageJ, the percent area of each 20× objective image of lung cryosections described above containing tissue (not counting pale pink exudates) was measured, and this percentage was subtracted from 100% to obtain the percent area of the image occupied by the alveolar airspace. […]

[2] = system: Mouse Model of COVID-19-Like Cytokine Storm (ORN06); assay: Serum cytokine levels (LEGENDplex Mouse Inflammation Panel), ORN06 mouse model; settings: AMPCA 0.1 mg/kg i.p. at 24 and 48 hours after ORN06, serum at day 3
Protocol: (§3) To determine if DANA or AMPCA affect CALD symptoms in mice, 5 week old 20 g male and female C57BL/6 mice (#000664; Jackson Laboratories, Bar Harbor, ME) were given an oropharyngeal aspiration of 1 mg/kg (20 μg/mouse) ORN06/LyoVec (LyoVec protects the ssRNA from degradation and facilitates cellular uptake) (InvivoGen, San Diego, CA) in 50 μl phosphate-buffered saline (PBS) to induce symptoms of pulmonary inflammation, or an oropharyngeal aspiration of an equal volume of PBS as a control, following Current protocols in mouse biology 2, 167-175 (2012). At 24 and 48 hours after ORN06 insult, some of ORN06-treated mice were given intraperitoneal injections of 100 μl PBS, or 10 mg/kg of DANA (N-Acetyl-2,3-dehydro-2-deoxyneuraminic acid; #252926-10MG, EMD, Millipore, Burlington, MA) or 0.1 mg/kg of 2-piperidinecarboxylic acid, 4-amino-1-methyl (AMPCA, #A00285-13785-026, Sundia, Shanghai, China) in 100 μl PBS. The DANA was dissolved in water to 2.5 mg/ml, and then diluted in PBS The AMPCA was dissolved directly in PBS. At day 3, mice were euthanized by CO2 inhalation, and BALF was obtained as previously described in Current protocols in mouse biology 2, 167-175 (2012); Proceedings of the National Academy of Sciences of the United States of America 112, 8385-8390 (2015); Public Library of Science ONE 9, e93730 (2014); and Nature Scientific Reports 8; 7 (1):15069 (2017). The experiment was performed in accordance with the recommendations in the Guide for the Care and use of Laboratory Animals of the National Institutes of Health. The Texas A&M University Animal Use and Care Committee approved the protocol.
Serum samples collected at day 3 post control or ORN06 insult were processed following the manufacturer's protocol. (#740150, LEGENDplex Mouse Inflammation Panel (13-plex), Biolegend, San Diego, CA) for simultaneous quantification of mouse cytokines using an Accuri C6 (BD Bioscience, Franklin Lakes, NJ) flow cytometer.

[3] = system: Mouse Model of CALD (ORN06 oropharyngeal aspiration); assay: Total cells in BALF, ORN06 mouse model of CALD; settings: i.p. at 24 and 48 hours after ORN06 insult (DANA 10 mg/kg, AMPCA 0.1 mg/kg); BALF at day 3; FIG. 1
[4] = system: Mouse Model of CALD (ORN06 oropharyngeal aspiration); assay: BALF cell types by Wright-Giemsa staining, ORN06 mouse model of CALD; settings: for ORN06-induced increase in the number of monocyte/macrophages in the BALF / counts of specific cell types in the BALF, treated groups versus Control group: i.p. at 24 and 48 hours after ORN06 (DANA 10 mg/kg, AMPCA 0.1 mg/kg); for ORN06-induced increase in the number of monocyte/macrophages in the BALF: day 3, FIG. 2A; for counts of specific cell types in the BALF, treated groups versus Control group: day 3, FIG. 2A-C
Protocol: as §3
Total cells in the BALF were then quantified. The BALF cells were processed to prepare cell spots as described previously in Public Library of Science ONE 9, e93730 (2014), Nature Scientific Reports 8; 7 (1):15069 (2017); American Journal of Physiology Lung Cellular and Molecular Physiology, 1; 318 (1):L165-L179 (2020). After air drying for 48 hours at room temperature, some of the prepared BALF cell spots were fixed and treated with Wright-Giemsa stain (#08711, Polysciences, Inc., Warrington, PA) following the manufacturer's instructions. One hundred and fifty cells per mouse were examined and quantified for cell type following the manufacturer's instructions. Imaging of BALF cell spots stained with Wright-Giemsa stain was done with a Nikon Eclipse Ti2 microscope.

[5] = system: Mouse Model of CALD (ORN06 oropharyngeal aspiration); assay: Alveolar wall thickness in H&E-stained lung cryosections, ORN06 mouse model of CALD; settings: i.p. at 24 and 48 hours after ORN06 (DANA 10 mg/kg, AMPCA 0.1 mg/kg), day 3, FIGS. 5 and 6
Protocol: as §1, with “(2012). At 24 and 48 hours after ORN06 insult, some of ORN06-treated mice were given intraperitoneal injections of 100 μl PBS, or 10 mg/kg of DANA (N-Acetyl-2,3-dehydro-2-deoxyneuraminic acid; #252926-10MG, EMD, Millipore, Burlington, MA) or 0.1 mg/kg of 2-piperidinecarboxylic acid, 4-amino-1-methyl (AMPCA, #A00285-13785-026, Sundia, Shanghai, China) in 100 μl PBS.” for “(2012).”
as §2

[6] = system: Mouse Model of CALD (ORN06 oropharyngeal aspiration); assay: BALF cell types by immunochemistry on cell spots, ORN06 mouse model of CALD; settings: i.p. at 24 and 48 hours after ORN06 (DANA 10 mg/kg, AMPCA 0.1 mg/kg), day 3, FIG. 3
Protocol: as §3
Immunochemistry on BALF cell spots and counts of cells was performed as described previously in Public Library of Science ONE 9, e93730 (2014); Proceedings of the National Academy of Sciences of the United States of America 112, 8385-8390 (2015); Nature Scientific Reports 8; 7 (1):15069 (2017); American Journal of Physiology Lung Cellular and Molecular Physiology, 1; 318 (1)1,165-L179 (2020) using anti-CD3 (100202, clone 17A2, BioLegend, San Diego, CA) to detect T-cells, anti-CD11b (101202, clone M1/70, BioLegend) to detect blood and inflammatory macrophages, anti-CD11c (M100-3, clone 223H7, MBL International, Woburn, MA) to detect alveolar macrophages and dendritic cells, anti-CD45 (103102, clone 30-F11, BioLegend) for total leukocytes, anti-Ly6G (127602, clone 1A8, BioLegend) to detect neutrophils, with isotype-matched irrelevant rat antibodies diluted to 5 μg/ml in PBS containing 2% (w:v) bovine serum albumin (PBS-BSA) (VWR, Radnor, PA). Cells were then incubated in coplin jars containing PBS, with 6 changes of buffer over 30 minutes. […] Using a 40× objective, at least 100 cells from each stained BALF spot were examined and the percent positive cells was recorded.

[7] = system: Mouse Model of CALD (ORN06 oropharyngeal aspiration); assay: Clot-like aggregates in BALF cell spots, ORN06 mouse model of CALD; settings: male mice; irregularly shaped 2-10 μm object staining dark blue with Wright-Giemsa; i.p. at 24 and 48 hours after ORN06 (DANA 10 mg/kg, AMPCA 0.1 mg/kg); day 3; FIG. 4
[8] = system: Mouse Model of CALD (ORN06 oropharyngeal aspiration); assay: Percent of exudate-containing alveoli in lung cryosections, ORN06 mouse model of CALD; settings: male mice, i.p. at 24 and 48 hours after ORN06 (DANA 10 mg/kg, AMPCA 0.1 mg/kg), day 3, FIG. 7
Protocol: as §1, with “(2012). At 24 and 48 hours after ORN06 insult, some of ORN06-treated mice were given intraperitoneal injections of 100 μl PBS, or 10 mg/kg of DANA (N-Acetyl-2,3-dehydro-2-deoxyneuraminic acid; #252926-10MG, EMD, Millipore, Burlington, MA) or 0.1 mg/kg of 2-piperidinecarboxylic acid, 4-amino-1-methyl (AMPCA, #A00285-13785-026, Sundia, Shanghai, China) in 100 μl PBS.” for “(2012).”
as §2

| Structure (SMILES) | percentage of the alveolar airspace area occupied by exudate [1] | serum levels of IL-1β ([2]; FIG. 9A) | serum levels of IL-6 ([2]; FIG. 9B) | serum levels of IL-12p70 ([2]; FIG. 9C) | serum levels of IL-23 ([2]; FIG. 9D) | serum levels of IL-27 ([2]; FIG. 9E) | ORN06-induced increase in the number of cells in the BALF [3] | number of cells in the BALF, treated groups versus Control group [3] | ORN06-induced increase in the number of lymphocytes in the BALF ([4]; AMPCA 0.1 mg/kg i.p. at 24 and 48 hours after ORN06, day 3, FIG. 2B) | ORN06-induced increase in the number of monocyte/macrophages in the BALF [4] | counts of specific cell types in the BALF, treated groups versus Control group [4] | ORN06-induced alveolar wall thickness increase [5] | ORN06-induced increase in the number of CD11c positive macrophages and/or dendritic cells in the BALF [6] | ORN06-induced increase in the number of CD45-positive leukocytes in the BALF [6] | clot-like aggregates in the BAL cell spots [7] | percentage of exudate-containing alveoli [8] |
| --- | --- | --- | --- | --- | --- | --- | --- | --- | --- | --- | --- | --- | --- | --- | --- | --- |
| CN1CCC(N)CC1C(=O)O (centres unmarked) [AMPCA, 4-amino-1-methyl-2-piperidine carboxylic acid] | decreased the percentage of the alveolar airspace area occupied by exudate | decreased the serum levels of both cytokines | decreased the serum levels of both cytokines | decreased the serum levels of IL-12p70 | decreased the serum levels | decreased the serum levels | ameliorated the ORN06-induced increase in the number of cells in the BALF | no significant difference | decreased the ORN06-induced increase in the number of monocyte/macrophages and lymphocytes | decreased the ORN06-induced increase in the number of monocyte/macrophages | no significant difference | significantly reduced | decreased the ORN06-induced increase in the number of CD11c positive macrophages and/or dendritic cells | decreased the ORN06-induced increase | No clot-like aggregates were observed | decreased the percentage of exudate-containing alveoli |
| CC(=O)N[C@H]1[C@H]([C@H](O)[C@H](O)CO)OC(C(=O)O)=C[C@@H]1O [DANA, 2-deoxy-2,3-didehydro-N-acetylneuraminic acid] | decreased the percentage of the alveolar airspace area occupied by exudate |  |  |  |  |  | ameliorated the ORN06-induced increase in the number of cells in the BALF | no significant difference |  | decreased the ORN06-induced increase in the number of monocyte/macrophages | no significant difference | significantly reduced | decreased the ORN06-induced increase in the number of CD11c positive macrophages and/or dendritic cells | decreased the ORN06-induced increase | no clot-like aggregates were observed in the BAL cell spots from 2 of the 3 | decreased the percentage of exudate-containing alveoli |
